Key:
[1] = system: Hutcheson soybean; assay: Crop (soybean) conditions after soil treatment; type: in vivo; settings: 57 d after treatment; for Number of Plants/Pot: 5 seeds/pot
Experimental: In this study, the soil was naturally infested with four species of nematodes, two of which were deleterious and two beneficial, and observations were made of both the nematode survival and the growth of the soybean plants. Stock solutions of hydrogen cyanamide at 1.0% by weight and propionic acid at 5.0% by weight, both in water, were prepared, the hydrogen cyanamide from a phosphate-buffered 50% aqueous solution. Planting pots measuring 10 cm in diameter, each containing 1 kg of soil, were used. […] The resulting plants were then removed from the pots, the root systems were washed, and the number of plants in each pot was determined. The weights of both fresh shoots and roots were also determined as well as the shoot height and the relative health of the root system, using a subjective index. Soil samples were also collected, and the soil and roots were incubated to determine nematode populations. Treatments were arranged in randomized complete block design with seven replications per treatment, and statistical evaluation of the data was performed with analyses of variance (ANOVA) and standard regression procedures. Fischer's Least Significant Difference at p 0.05 was calculated when appropriate. The results of these tests are listed as final test results in Tables II, III, and IV, with nematode populations in the soil listed in Table II, the nematode populations in the root systems in Table III, and the plant and root parameters of the soybean shoots in Table IV.

[2] = system: reniform nematodes; assay: Nematicidal activity in covered pots of naturally infested silt loam, soybean planted after 12 days; type: in vivo, Rotylenchulus reniformus
Experimental: (§1) In this study, the soil was naturally infested with four species of nematodes, two of which were deleterious and two beneficial, and observations were made of both the nematode survival and the growth of the soybean plants.
(§2) Stock solutions of hydrogen cyanamide at 1.0% by weight and propionic acid at 5.0% by weight, both in water, were prepared, the hydrogen cyanamide from a phosphate-buffered 50% aqueous solution. Planting pots measuring 10 cm in diameter, each containing 1 kg of soil, were used. The soil was silt loam from a cotton field, pH 6.2, CEC<10 meq/100 g soil, organic matter<1.0%. The treatment chemicals were combined in various dilutions such that 100 mL of the combined dilutions contained the desired amount of each chemical for each test. The combined dilutions were then applied to the soil surface in each pot, at 100 mL of combined dilution per pot. The dilutions were selected to achieve target application rates expressed in milligrams of the treatment chemical per kilogram of soil, with 1 milligram of treatment chemical per kilogram of soil being approximately equal to 2 kilograms of the chemical per hectare of soil or 2 pounds of the chemical per acre of soil.
(§3) Immediately after the treatment chemicals were applied, each pot was covered by a thick (1.5 mil), clear, low-density polyethylene bag. After twelve days, the bags were removed and soil samples were taken from each pot for nematological analysis by the salad bowl technique of Rodriguez-Kabana, R., and M. H. Pope, Nematropica, 11: 175-186 (1981). The results of these analyses are listed in Table I as pre-plant test results. The results for the two deleterious nematodes are also shown as plots of the number of nematodes vs. the hydrogen cyanamide application rate in FIGS. 1 and 2.
(§4) After the polyethylene bags were removed, each pot was planted with Hutcheson soybean seeds at 5 seeds per pot, and the seeds were allowed to germinate and the plants to grow for 45 days. The resulting plants were then removed from the pots, the root systems were washed, and the number of plants in each pot was determined. The weights of both fresh shoots and roots were also determined as well as the shoot height and the relative health of the root system, using a subjective index. Soil samples were also collected, and the soil and roots were incubated to determine nematode populations. Treatments were arranged in randomized complete block design with seven replications per treatment, and statistical evaluation of the data was performed with analyses of variance (ANOVA) and standard regression procedures. Fischer's Least Significant Difference at p 0.05 was calculated when appropriate. The results of these tests are listed as final test results in Tables II, III, and IV, with nematode populations in the soil listed in Table II, the nematode populations in the root systems in Table III, and the plant and root parameters of the soybean shoots in Table IV.

[3] = system: yellow nutsedge; assay: Herbicidal activity, phosphate-free cyanamide and propionic acid, post-emergence, uncovered pots; type: in vivo, Cyperus esculentus
Excerpt: The procedures in this example differed from those of Example 2, however, by the use of hydrogen cyanamide crystals free of phosphate ion to prepare the aqueous hydrogen cyanamide solution, by the use of post-emergence application, and by the omission of any covering of the pots during any part of the test. Observations were made for total weed growth, and individual observations were also made for yellow nutsedge, crabgrass, sicklepod, and momingglory. Stock solutions of hydrogen cyanamide at 1.25% by weight and propionic acid at 5.0% by weight, both in water, were prepared as before, except that the hydrogen cyanamide solution, as noted above, was prepared by dissolving hydrogen cyanamide crystals in water in the absence of phosphate ion. […] The weeds were allowed to grow for three weeks before the treatment chemicals were applied. […] Data analyses were performed in the same manner as Examples 1 and 2. Table IX lists the results in weeds per pot for all weeds, Table X for yellow nutsedge, Table XI for crabgrass, Table XII for sicklepod, and Table XIII for morningglory, all both with propionic acid alone at various application […]

[4] = system: spiral nematodes; assay: Nematicidal activity in covered pots of naturally infested silt loam, soybean planted after 12 days; type: in vivo, Helicotylenchus dihystera
Experimental: as §1, §2, §3, §4

[5] = 12 d after treatment, pre-plant, C2H5CO2H 250 mg/kg soil
[6] = 57 d after treatment, 45 d after planting, C2H5CO2H 250 mg/kg soil
[7] = 57 d after treatment, C2H5CO2H 250 mg/kg soil
[8] = 12 d after treatment, pre-plant, cyanamide 20 mg/kg soil
[9] = 12 d after treatment, pre-plant, cyanamide 40 mg/kg soil
[10] = 12 d after treatment, pre-plant, cyanamide 60 mg/kg soil
[11] = 12 d after treatment, pre-plant, cyanamide 80 mg/kg soil
[12] = 12 d after treatment, pre-plant, cyanamide 120 mg/kg soil
[13] = 57 d after treatment, 45 d after planting, cyanamide 20 mg/kg soil
[14] = 57 d after treatment, 45 d after planting, cyanamide 40 mg/kg soil
[15] = 57 d after treatment, 45 d after planting, cyanamide 60 mg/kg soil
[16] = 57 d after treatment, 45 d after planting, cyanamide 80 mg/kg soil
[17] = 57 d after treatment, 45 d after planting, cyanamide 120 mg/kg soil
[18] = 57 d after treatment, cyanamide 20 mg/kg soil
[19] = 57 d after treatment, cyanamide 40 mg/kg soil
[20] = 57 d after treatment, cyanamide 60 mg/kg soil
[21] = 57 d after treatment, cyanamide 80 mg/kg soil
[22] = 57 d after treatment, cyanamide 120 mg/kg soil

## CCC(=O)O [C2H5CO2H, propionic acid]
[1]; C2H5CO2H 250 mg/kg soil
  Number of Plants/Pot: 3.7
  Fresh Shoot Weight: 19.6 g
  Root Condition Index: 2.1
  Shoot Height: 26.9 cm
[2]; [5]
  Surviving Nematodes: Reniform: 280 per 100 mL of soil
[2]; [6]
  Surviving Nematodes: Reniform: 328 per 100 mL of soil
[2]; [7]
  Surviving Nematodes in Root System: Reniform: 64.7 Per Pot
[3]; 6 d after treatment, C2H5CO2H 100 mg/kg soil
  Weeds Per Pot: Yellow Nutsedge: 2.4
[3]; 6 d after treatment, C2H5CO2H 200 mg/kg soil
  Weeds Per Pot: Yellow Nutsedge: 4
[3]; 6 d after treatment, C2H5CO2H 300 mg/kg soil
  Weeds Per Pot: Yellow Nutsedge: 1.9
[3]; 6 d after treatment, C2H5CO2H 400 mg/kg soil
  Weeds Per Pot: Yellow Nutsedge: 3
[3]; 6 d after treatment, C2H5CO2H 500 mg/kg soil
  Weeds Per Pot: Yellow Nutsedge: 2.1
[3]; 13 d after treatment, C2H5CO2H 100 mg/kg soil
  Weeds Per Pot: Yellow Nutsedge: 3
[3]; 13 d after treatment, C2H5CO2H 200 mg/kg soil
  Weeds Per Pot: Yellow Nutsedge: 4.9
[3]; 13 d after treatment, C2H5CO2H 300 mg/kg soil
  Weeds Per Pot: Yellow Nutsedge: 3.3
[3]; 13 d after treatment, C2H5CO2H 400 mg/kg soil
  Weeds Per Pot: Yellow Nutsedge: 4.7
[3]; 13 d after treatment, C2H5CO2H 500 mg/kg soil
  Weeds Per Pot: Yellow Nutsedge: 3.9
[3]; 20 d after treatment, C2H5CO2H 100 mg/kg soil
  Weeds Per Pot: Yellow Nutsedge: 3.1
[3]; 20 d after treatment, C2H5CO2H 200 mg/kg soil
  Weeds Per Pot: Yellow Nutsedge: 5.4
[3]; 20 d after treatment, C2H5CO2H 300 mg/kg soil
  Weeds Per Pot: Yellow Nutsedge: 4.7
[3]; 20 d after treatment, C2H5CO2H 400 mg/kg soil
  Weeds Per Pot: Yellow Nutsedge: 5.3
[3]; 20 d after treatment, C2H5CO2H 500 mg/kg soil
  Weeds Per Pot: Yellow Nutsedge: 4.1
[4]; [5]
  Surviving Nematodes: Spiral: 47 per 100 mL of soil
[4]; [6]
  Surviving Nematodes: Spiral: 12.4 per 100 mL of soil
[4]; [7]
  Surviving Nematodes in Root System: Spiral: 25.9 Per Pot

## N#CN [Cyanamide, hydrogen cyanamide]
[1]; cyanamide 20 mg/kg soil
  Number of Plants/Pot: 4
  Fresh Shoot Weight: 21.7 g
  Root Condition Index: 1.6
  Shoot Height: 26.4 cm
[1]; cyanamide 40 mg/kg soil
  Number of Plants/Pot: 3.9
  Fresh Shoot Weight: 20.5 g
  Root Condition Index: 1.4
  Shoot Height: 26.5 cm
[1]; cyanamide 60 mg/kg soil
  Number of Plants/Pot: 4.7
  Fresh Shoot Weight: 25.5 g
  Root Condition Index: 1.1
  Shoot Height: 27 cm
[1]; cyanamide 80 mg/kg soil
  Number of Plants/Pot: 4.4
  Fresh Shoot Weight: 24.95 g
  Root Condition Index: 1.1
  Shoot Height: 27.1 cm
[1]; cyanamide 120 mg/kg soil
  Number of Plants/Pot: 4.9
  Fresh Shoot Weight: 29.4 g
  Root Condition Index: 1.3
  Shoot Height: 28.7 cm
[2]; [8]
  Surviving Nematodes: Reniform: 274 per 100 mL of soil
[2]; [9]
  Surviving Nematodes: Reniform: 191 per 100 mL of soil
[2]; [10]
  Surviving Nematodes: Reniform: 102 per 100 mL of soil
[2]; [11]
  Surviving Nematodes: Reniform: 120 per 100 mL of soil
[2]; [12]
  Surviving Nematodes: Reniform: 16 per 100 mL of soil
[2]; [13]
  Surviving Nematodes: Reniform: 240 per 100 mL of soil
[2]; [14]
  Surviving Nematodes: Reniform: 190 per 100 mL of soil
[2]; [15]
  Surviving Nematodes: Reniform: 167 per 100 mL of soil
[2]; [16]
  Surviving Nematodes: Reniform: 354 per 100 mL of soil
[2]; [17]
  Surviving Nematodes: Reniform: 95 per 100 mL of soil
[2]; [18]
  Surviving Nematodes in Root System: Reniform: 25.7 Per Pot
[2]; [19]
  Surviving Nematodes in Root System: Reniform: 9.6 Per Pot
[2]; [20]
  Surviving Nematodes in Root System: Reniform: 13.4 Per Pot
[2]; [21]
  Surviving Nematodes in Root System: Reniform: 19.4 Per Pot
[2]; [22]
  Surviving Nematodes in Root System: Reniform: 4.3 Per Pot
[3]; 6 d after treatment, cyanamide 150 mg/kg soil
  Weeds Per Pot: Yellow Nutsedge: 2.4
[3]; 13 d after treatment, cyanamide 150 mg/kg soil
  Weeds Per Pot: Yellow Nutsedge: 4.6
[3]; 20 d after treatment, cyanamide 150 mg/kg soil
  Weeds Per Pot: Yellow Nutsedge: 6
[3]; hydrogen cyanamide 125 mg/kg of soil alone, all intervals
  Yellow nutsedge weeds per pot: about six or fewer yellow nutsedge weeds per pot
[4]; [8]
  Surviving Nematodes: Spiral: 102 per 100 mL of soil
[4]; [9]
  Surviving Nematodes: Spiral: 95 per 100 mL of soil
[4]; [10]
  Surviving Nematodes: Spiral: 59 per 100 mL of soil
[4]; [11]
  Surviving Nematodes: Spiral: 76 per 100 mL of soil
[4]; [12]
  Surviving Nematodes: Spiral: 18 per 100 mL of soil
[4]; [13]
  Surviving Nematodes: Spiral: 6.7 per 100 mL of soil
[4]; [14]
  Surviving Nematodes: Spiral: 3.7 per 100 mL of soil
[4]; [15]
  Surviving Nematodes: Spiral: 2.9 per 100 mL of soil
[4]; [16]
  Surviving Nematodes: Spiral: 9.8 per 100 mL of soil
[4]; [17]
  Surviving Nematodes: Spiral: 4.7 per 100 mL of soil
[4]; [18]
  Surviving Nematodes in Root System: Spiral: 42.3 Per Pot
[4]; [19]
  Surviving Nematodes in Root System: Spiral: 38.6 Per Pot
[4]; [20]
  Surviving Nematodes in Root System: Spiral: 42 Per Pot
[4]; [21]
  Surviving Nematodes in Root System: Spiral: 28 Per Pot
[4]; [22]
  Surviving Nematodes in Root System: Spiral: 16 Per Pot

Source: patent US20070116781A1, “Hydrogen Cyanamide Pesticide Formulations” (priority 2005, published 2007)
